These results are taken from patent US20200246316A1, “METHODS OF TREATING POST-SURGICAL PAIN WITH A THIAZOLINE ANTI-HYPERALGESIC AGENT” (CERSCI THERAPEUTICS, INC., priority 2019, published 2020).

The subject of test [1] is rat hind paw incision model. Put plainly: Brennan incisional pain model, prophylactic paradigm. It counts as in vivo. The note with it: single pre-surgical dose; 24 h, 48 h, 72 h post dose; FIG. 11. From the text: (§1) Two incisional pain models were used to assess Compound 1 effects on hyperalgesia. The first model is referred to as the Brennan model in which, under anesthesia, a 1 cm longitudinal incision to the skin and underlying fascia of a rat hindpaw is made. The second is a variation but is a more invasive procedure in which the skin and muscle are spread apart using forceps which creates a longer-lasting hypersensitivity.
Using the Brennan protocol and a prophylactic paradigm, Compound 1 (3 doses given PO) or vehicle was administered 15 min prior to incision. At the 24-, 48-, and 72-h time points post-incision, mechanical thresholds were obtained (manual von Frey filament, using up/down method).
In a subsequent experiment, the same paradigm was used with Compound 1 administered at a dose of 30 mg/kg PO along with positive control group consisting of celecoxib (30 mg/kg PO), morphine (10 mg/kg SC), and vehicle.

The test system of test [2] is established incision-induced mechanical hyperalgesia. Kind of test: Brennan incisional pain model, treatment paradigm. The note with it: morphine 3 mg/kg SC. It counts as in vivo, rat.
From the text: as §1
Using the Brennan protocol and a treatment paradigm in rat, Compound 1 (10 and 30 mg/kg PO), morphine (3 mg/kg SC) or vehicle were administered daily at 24 h post-incision, and again at 48 and 72 h post-incision. Mechanical thresholds were obtained at 1 h and 2 h post-dose in all cohorts on all days.

With `CN1CC[C@]23c4c5ccc(O)c4O[C@H]2[C@@H](O)C=C[C@H]3[C@H]1C5` [morphine, reference compound], the “effect on development of mechanical hyperalgesia” value in test [1] is reported as “no effect”. Also, in test [2] (Compound 1 10 and 30 mg/kg PO daily, FIG. 12), the “effect on established mechanical hyperalgesia (overall)” value was “analgesic at t=1 h on d1, and at t=1 h and 2 h post-dose on d2 and d3”. Besides, the analgesia result in test [2] (Day 1, 2-h time point) was “this effect waned”. The mechanical threshold in test [2] (Day 1, 1 h post-dose) is 45 g; in test [2] (Day 2 prior to dosing (Pre-Drug (D2))), under 15 g. The hyperalgesia result in test [2] (Day 2, 1-h time point) was “not hyperalgesic”; in test [2] (Day 2, 2 h), “mild hyperalgesia”.
As to `Cc1ccc(-c2cc(C(F)(F)F)nn2-c2ccc(S(N)(=O)=O)cc2)cc1` [celecoxib, reference compound], the “effect on development of mechanical hyperalgesia” value in test [1] is “no effect”.
